Measured values published in publication PMC10603992, “Antimicrobial and Adjuvant Potencies of Di-n-alkyl Substituted Diazalariat Ethers” (Antibiotics, 2023).
Values after ≈ are worked out from the molar mass of the structure shown. Read-outs that look alike come from different tables or passages of the source. Values belong to the molecule of their own block, whether it stands above or below them.

What was measured:
[1] = system: K12 E. coli; assay: MIC against K12 E. coli; type: cell-based; settings: Escherichia coli
[2] = system: S. aureus 1199B; assay: MIC against S. aureus 1199B; type: cell-based, Staphylococcus aureus; settings: Staphylococcus aureus, 1199B, read-out: MIC S. aureus 1199B, MHII media, 90% growth inhibition
[3] = no reference given, cited from earlier work
[4] = system: DH5α E. coli; assay: MIC against DH5α E. coli; type: cell-based; settings: Escherichia coli, no additional antimicrobial; MICs in table limited to […]; read-out: Minimum inhibitory concentration against DH5α E. coli
[5] = system: DH5α E. coli; parameters: method as in PMID 15858645; settings: free bases, previously reported data; cited from earlier work

Structure (SMILES): CCn1cc(C(=O)O)c(=O)c2cc(F)c(N3CCNCC3)cc21 [Norfloxacin, reference compound]
- MIC ([1]; MHII media, 90% growth inhibition, read-out: MIC K12 E. coli): 0.125 µM (≈ 0.0399 µg/mL)
- MIC [2]: 64 µM (≈ 20.4 µg/mL)

Structure (SMILES): CC1(C)S[C@@H]2[C@H](NC(=O)Cc3ccccc3)C(=O)N2[C@H]1C(=O)O [Penicillin G, penicillin G]
- pKa of the carboxyl groups ([3]; general value): 2.6–2.8

Structure (SMILES): CCCCN1CCOCCOCCN(CCCC)CCOCCOCC1 [di-n-butyl-diaza-18-crown-6]
- pK1 of macro ring nitrogen atoms [3]: 9.40
- pK2 of macro ring nitrogen atoms [3]: 7.97

- MIC [4]: > 128 µM
Structure (SMILES): CCCCCCCC[N+]1(C)CCOCCOCC[N+](C)(CCCCCCCC)CCOCCOCC1 (stereo not shown) [n-octyl LE•MeI]

Structure (SMILES): CCCCCCCCCCCCCCN1CCOCCOCCN(CCCCCCCCCCCCCC)CCOCCOCC1 [n-tetradecyl LE]
- MIC ([1]; read-out: MIC K12 E. coli, MHII media, 90% growth inhibition): ≥ 128 µM
- Minimum inhibitory concentration against DH5α E. coli [5]: >128 µM

- MIC [4]: > 128 µM
Structure (SMILES): CCCCCCCCCCCCCC[N+]1(C)CCOCCOCC[N+](C)(CCCCCCCCCCCCCC)CCOCCOCC1 (stereo not shown) [n-tetradecyl LE•MeI]

Structure (SMILES): CCCCCCCCCCCN1CCOCCOCCN(CCCCCCCCCCC)CCOCCOCC1 [n-undecyl LE, N,N′-Di-n-undecyl-4,13-diaza-18-crown-6]
- Minimum inhibitory concentration against DH5α E. coli [5]: 20 µM (≈ 11.4 µg/mL)
